Laboratory results taken from article PMC9783573, “Introduction of a SiFA Moiety into the D-Glutamate Chain of DOTA-PP-F11N Results in Radiohybrid-Based CCK-2R-Targeted Compounds with Improved Pharmacokinetics In Vivo” (Pharmaceuticals, 2022).
Non-standard residues stand in square brackets, D forms with d. Residues, ends and D or L forms follow the SMILES beside them. *: point of attachment. X1 = O=C(O)CN1CCN(CC(=O)O)CCN([C@H](CCC(=O)*)C(=O)O)CCN(CC(=O)O)CC1; Benzoyl(4-SiFtBu2) = CC(C)(C)[Si](F)(c1ccc(C(=O)*)cc1)C(C)(C)C; Nle = CCCC[C@H](N)C(=O)O; dDap = NC[C@@H](N)C(=O)O

Target: T1, CCK-2R (Rattus norvegicus, UniProt P30553)
T1 construct: CCK-2R expressing rat pancreatic cancer cells AR42J (CLS GmbH, Eppelheim,; host or cells: AR42J rat pancreatic cancer cells
T1 sequence (P30553 1-452): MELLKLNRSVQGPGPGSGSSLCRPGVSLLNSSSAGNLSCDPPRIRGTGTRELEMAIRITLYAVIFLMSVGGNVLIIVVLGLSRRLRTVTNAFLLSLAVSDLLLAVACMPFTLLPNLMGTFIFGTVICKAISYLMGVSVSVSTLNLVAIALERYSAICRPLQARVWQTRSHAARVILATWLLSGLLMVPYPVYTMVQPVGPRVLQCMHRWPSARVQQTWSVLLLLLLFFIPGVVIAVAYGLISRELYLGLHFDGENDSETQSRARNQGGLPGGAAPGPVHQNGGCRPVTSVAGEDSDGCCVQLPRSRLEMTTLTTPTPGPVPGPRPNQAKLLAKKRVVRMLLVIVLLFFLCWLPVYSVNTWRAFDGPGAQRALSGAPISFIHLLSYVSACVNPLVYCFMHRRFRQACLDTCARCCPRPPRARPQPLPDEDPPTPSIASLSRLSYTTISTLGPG
Test: CCK-2R-mediated internalisation and total cell uptake on AR42J cells
Format: cell-based
Settings: for Total cell uptake (%) / Internalisation Values (%): % of applied activity, AR42J cells, 37 °C, 0.25 pmol/well; for Internalisation Values (%): corrected for non-specific binding; for Internalisation Values (% of reference): % of the reference [177Lu]Lu-DOTA-PP-F11N
Protocol: Figure 3 (a) CCK-2R-mediated internalisation ([…]) on AR42J cells as percent (%) of the applied activity (incubation at 37 °C for 1, 2, 4 and 6 h, RPMI 1640, 5 mM L-Gln, 5 mL non-essential amino acids (100×), 10% FCS + 5% BSA (v/v), 3.0 × 10^5 cells/mL/well). (b) CCK-2R mediated internalisation (% of the reference [^177Lu]Lu-DOTA-PP-F11N) of [^177Lu]Lu-CP04 (grey), [^177Lu]Lu-(R)-DOTAGA-rhCCK-9 (red) and [^177Lu]Lu-(R)-DOTAGA-rhCCK-16 (green) after incubation for 6 h.
Internalisation studies of the ^177Lu-labelled conjugates (0.3 pmol) were performed on AR42J cells (3.0 × 10^5 cells per 1 mL/well) at 37 °C for 1, 2, 4 and 6 h (n = 3). Data were corrected for non-specific binding (competition by 10^−4 M [^natLu]Lu-DOTA-PP-F11N).
Cell Culture. CCK-2R expressing rat pancreatic cancer cells AR42J (CLS GmbH, Eppelheim, Germany) were cultivated in monolayers in CELLSTAR ® cell culture flasks acquired from Greiner Bio-One GmbH (Frickenhausen, Germany) at 37 °C in a humidified atmosphere (5% CO2) using a HERAcell 150i-Incubator (Thermo Fisher Scientific Inc., Waltham, United States). As nutrient medium RPMI 1640 medium, supplemented with 5 mM L-Gln 5 mL non-essential amino acids (100×) and 10% FCS, was used. Furthermore, a Dulbecco’s PBS solution with 0.1% EDTA (v/v) was applied to detach the cells for cell passaging. The detached cells were counted using a Neubauer hemocytometer ( Paul Marienfeld, Lauda-Königshofen, Germany). In addition, all operations under sterile conditions were accomplished using a MSC-Advantage safety workbench (Thermo Fisher Scientific Inc., Waltham, United States). […]
Internalisation Studies. For the determination of the internalisation kinetics of the various peptides, AR42J cells (3.0 × 10^5 cells/well) were seeded into polylysine coated 24-well plates adding 1 mL of nutrient medium. Afterwards, the cells were incubated for 24 ± 2 h at 37 °C in a humidified atmosphere […]
On the day of the experiment, the medium was removed, and each well was washed with nutrient medium (300 µL). Afterwards 200 µL of nutrient medium, 25 µL of the 177Lu-labeled peptide (0.3 pmol, n = 6) and either 25 µL of nutrient medium for internali sation studies (n = 3) or 25 µL of [natLu]Lu-DOTA-PP-F11N ([…]) for competition studies (n = 3) were added. Thereafter, the assay was incubated for various time points (1, 2, 4and 6 h) at 37 °C in a humidified atmosphere (5% CO2). After incubation, the cells were put on ice for at least 1 min to stop internalisation kinetics and the supernatant was collected. Then, the cells were washed with an ice-cold nutrient medium (300 µL) and both fractions were unified. For the acid wash, 300 µL of an ice-cold glycine buffer ([…] lysis of the cells with NaOH (300 μL, 1 N) for 15 min, the respective wells were washed with NaOH (300 μL, 1 N) and both fractions were unified. The radioactivity of the supernatant, the acid wash and the lysed fractions were quantified using a γ-counter.

Compound	Total cell uptake (%) (1 h)	Internalisation Values (%) (1 h)	Total cell uptake (%) (2 h)	Internalisation Values (%) (2 h)	Total cell uptake (%) (4 h)	Internalisation Values (%) (4 h)	Total cell uptake (%) (6 h)	Internalisation Values (%) (6 h)	Internalisation Values (% of reference) (6 h)
CCCC[C@H](NC(=O)[C@H](Cc1c[nH]c2ccccc12)NC(=O)CNC(=O)[C@H](Cc1ccc(O)cc1)NC(=O)[C@H](C)NC(=O)[C@@H](CCC(=O)O)NC(=O)[C@@H](CCC(=O)O)NC(=O)[C@@H](CCC(=O)O)NC(=O)[C@@H](CCC(=O)O)NC(=O)[C@@H](CCC(=O)O)NC(=O)[C@@H](CCC(=O)O)NC(=O)[C@@H](CCC(=O)O)NC(=O)[C@@H](CCC(=O)O)NC(=O)[C@@H](CNC(=O)c1ccc([Si](F)(C(C)(C)C)C(C)(C)C)cc1)NC(=O)CC[C@H](C(=O)O)N1CCN(CC(=O)O)CCN(CC(=O)O)CCN(CC(=O)O)CC1)C(=O)N[C@@H](CC(=O)O)C(=O)N[C@@H](Cc1ccccc1)C(N)=O [[nat/177Lu]Lu-(R)-DOTAGA-rhCCK-9, metal not drawn] (X1-[dDap](Benzoyl(4-SiFtBu2))[dE][dE][dE][dE][dE][dE][dE][dE]AYGW[Nle]DF-NH2)	2.25 ± 0.23%	2.08 ± 0.12%	3.46 ± 0.56%	3.44 ± 0.55%	8.31 ± 0.59%	8.01 ± 0.53%	13.4 ± 0.7%	13.2 ± 0.5%	65.7 ± 2.5 % of reference
CCCC[C@H](NC(=O)[C@H](Cc1c[nH]c2ccccc12)NC(=O)CNC(=O)[C@H](Cc1ccc(O)cc1)NC(=O)[C@H](C)NC(=O)CC[C@@H](NC(=O)CC[C@@H](NC(=O)CC[C@@H](NC(=O)CC[C@@H](NC(=O)CC[C@@H](NC(=O)CC[C@@H](NC(=O)[C@@H](CNC(=O)c1ccc([Si](F)(C(C)(C)C)C(C)(C)C)cc1)NC(=O)CC[C@H](C(=O)O)N1CCN(CC(=O)O)CCN(CC(=O)O)CCN(CC(=O)O)CC1)C(=O)O)C(=O)O)C(=O)O)C(=O)O)C(=O)O)C(=O)O)C(=O)N[C@@H](CC(=O)O)C(=O)N[C@@H](Cc1ccccc1)C(N)=O [[nat/177Lu]Lu-(R)-DOTAGA-rhCCK-16, metal not drawn]	8.37 ± 0.07%	7.63 ± 0.13%	14.4 ± 1.3%	14.0 ± 1.3%	23.6 ± 2.8%	23.2 ± 2.7%	32.8 ± 2.3%	32.2 ± 2.1%	135 ± 9 % of reference
CSCC[C@H](NC(=O)[C@H](Cc1c[nH]c2ccccc12)NC(=O)CNC(=O)[C@H](Cc1ccc(O)cc1)NC(=O)[C@H](C)NC(=O)[C@@H](CCC(=O)O)NC(=O)[C@@H](CCC(=O)O)NC(=O)[C@@H](CCC(=O)O)NC(=O)[C@@H](CCC(=O)O)NC(=O)[C@@H](CCC(=O)O)NC(=O)[C@@H](CCC(=O)O)NC(=O)CN1CCN(CC(=O)O)CCN(CC(=O)O)CCN(CC(=O)O)CC1)C(=O)N[C@@H](CC(=O)O)C(=O)N[C@@H](Cc1ccccc1)C(N)=O [[nat/177Lu]Lu-CP04, metal not drawn, reference compound]	6.00 ± 0.42%	5.16 ± 0.44%	10.0 ± 0.4%	9.33 ± 0.36%	16.5 ± 0.9%	15.4 ± 0.7%		20.5 ± 0.5%	91.6 ± 2.4 % of reference
CCCC[C@H](NC(=O)[C@H](Cc1c[nH]c2ccccc12)NC(=O)CNC(=O)[C@H](Cc1ccc(O)cc1)NC(=O)[C@H](C)NC(=O)[C@@H](CCC(=O)O)NC(=O)[C@@H](CCC(=O)O)NC(=O)[C@@H](CCC(=O)O)NC(=O)[C@@H](CCC(=O)O)NC(=O)[C@@H](CCC(=O)O)NC(=O)[C@@H](CCC(=O)O)NC(=O)CN1CCN(CC(=O)O)CCN(CC(=O)O)CCN(CC(=O)O)CC1)C(=O)N[C@@H](CC(=O)O)C(=O)N[C@@H](Cc1ccccc1)C(N)=O [[nat/177Lu]Lu-DOTA-PP-F11N, metal not drawn, reference compound]	7.03 ± 1.45%	6.44 ± 0.32%	10.6 ± 1.5%	10.1 ± 0.4%	18.5 ± 2.5%	17.5 ± 1.0%	23.5 ± 1.4%	22.4 ± 0.6%	
